From US20250360143A1, “COMPOSITIONS AND METHODS FOR PHA[…] OF STROKE AND […] REPERFUSION INJURY” (priority 2022, published 2025) come the findings set out here.

Holding throughout (assay): cell-based
Experiment [1] concerns the target T1, hP2X3R (Homo sapiens, UniProt P56373).
T1 construct: expressed in transfected cells; host or cells: CHO-K1
T1 sequence (P56373 1-397): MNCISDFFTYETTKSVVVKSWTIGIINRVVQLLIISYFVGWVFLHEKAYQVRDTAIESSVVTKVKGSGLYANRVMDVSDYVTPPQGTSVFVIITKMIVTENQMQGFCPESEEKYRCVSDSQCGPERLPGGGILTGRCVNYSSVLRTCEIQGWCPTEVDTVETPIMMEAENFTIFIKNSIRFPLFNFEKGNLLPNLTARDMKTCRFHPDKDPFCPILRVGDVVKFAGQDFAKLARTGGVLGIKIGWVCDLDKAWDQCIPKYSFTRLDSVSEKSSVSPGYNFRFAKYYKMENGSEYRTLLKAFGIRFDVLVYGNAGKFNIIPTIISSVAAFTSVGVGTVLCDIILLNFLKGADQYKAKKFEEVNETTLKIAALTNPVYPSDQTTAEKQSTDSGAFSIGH
Type of experiment: cell-based. The following applies: for inhibition at 30 µM: CHO-K1, read-out: hP2X3R % inhib.

The target in experiment [2] is T2, hP2X2/3R (Homo sapiens, UniProt P56373+Q9UBL9).
T2 construct: expressed in transfected cells; host or cells: CHO-K1
T2 sequence (Q9UBL9 1-471): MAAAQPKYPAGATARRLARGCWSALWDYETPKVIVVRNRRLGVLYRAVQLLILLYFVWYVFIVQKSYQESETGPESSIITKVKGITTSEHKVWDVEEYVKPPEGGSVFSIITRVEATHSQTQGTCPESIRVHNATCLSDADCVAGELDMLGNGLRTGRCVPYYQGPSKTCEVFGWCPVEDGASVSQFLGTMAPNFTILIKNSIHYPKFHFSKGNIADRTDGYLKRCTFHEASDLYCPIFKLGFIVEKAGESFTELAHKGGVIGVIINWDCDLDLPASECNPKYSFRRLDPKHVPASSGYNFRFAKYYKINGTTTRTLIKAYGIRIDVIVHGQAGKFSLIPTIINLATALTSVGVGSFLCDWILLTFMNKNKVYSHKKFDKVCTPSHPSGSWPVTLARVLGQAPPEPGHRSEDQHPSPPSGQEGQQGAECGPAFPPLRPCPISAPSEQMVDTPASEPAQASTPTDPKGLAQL
T2 sequence (P56373 1-397): T1 sequence (P56373 1-397)
Type of experiment: cell-based. The following applies: for inhibition at 30 µM: CHO-K1, read-out: hP2X2/3R % inhib.

Experiment [3] has as its target T3, hP2X1R (Homo sapiens, UniProt P51575).
T3 construct: expressed in transfected cells; host or cells: CHO-K1
T3 sequence (P51575 1-399): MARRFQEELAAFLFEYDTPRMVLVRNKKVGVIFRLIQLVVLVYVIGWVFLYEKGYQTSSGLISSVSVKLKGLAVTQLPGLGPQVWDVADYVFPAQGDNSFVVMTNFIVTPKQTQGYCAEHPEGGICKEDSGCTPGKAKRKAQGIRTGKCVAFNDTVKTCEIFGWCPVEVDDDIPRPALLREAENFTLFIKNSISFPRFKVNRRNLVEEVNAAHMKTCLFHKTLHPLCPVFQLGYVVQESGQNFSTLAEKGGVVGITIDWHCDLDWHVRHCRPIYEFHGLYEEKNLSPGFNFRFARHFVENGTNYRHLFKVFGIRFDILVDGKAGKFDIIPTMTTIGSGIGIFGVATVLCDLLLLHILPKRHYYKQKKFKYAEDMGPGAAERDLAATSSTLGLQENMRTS
The following applies: for inhibition at 30 µM: CHO-K1, percent inhibition at 30 μM, agonist α,β-MeATP 1.0 μM, read-out: hP2X1R % inhib.

In experiment [4] the target is T4, hP2X4R (Homo sapiens, UniProt Q99571).
T4 construct: expressed in transfected cells; host or cells: HEK-293
T4 sequence (Q99571 1-388): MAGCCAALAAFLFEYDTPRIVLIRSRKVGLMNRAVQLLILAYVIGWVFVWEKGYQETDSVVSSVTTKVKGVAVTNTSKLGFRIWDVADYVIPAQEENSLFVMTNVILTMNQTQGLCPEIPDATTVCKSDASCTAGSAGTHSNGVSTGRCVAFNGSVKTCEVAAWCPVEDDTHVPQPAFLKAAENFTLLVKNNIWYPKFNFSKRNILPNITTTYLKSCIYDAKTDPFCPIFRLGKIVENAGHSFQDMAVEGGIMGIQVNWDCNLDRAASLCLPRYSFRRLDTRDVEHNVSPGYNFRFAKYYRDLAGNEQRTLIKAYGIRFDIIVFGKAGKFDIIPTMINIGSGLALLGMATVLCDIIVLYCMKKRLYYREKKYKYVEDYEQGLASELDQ
Type of experiment: cell-based. The following applies: for inhibition at 30 µM: HEK293, read-out: hP2X4R % inhib.

Setting [5] is: percent inhibition at 30 μM, agonist α,β-MeATP 1.0 μM.
[6] abbreviates: percent inhibition at 30 μM, agonist α,β-MeATP 5.0 μM.

pIC50: −log10 of the molar value. Counter-ions that a name gives are not always drawn. Like-named read-outs stand apart in the source and are kept apart here.

By pIC50 is commonly meant the negative decadic logarithm of the IC50, by convention in mol/L. Low values mean a large IC50, high ones a small IC50.

For the compound “2′,3′-O-Trinitrophenyl-adenosine-5′-triphosphate [TNP-ATP, reference compound]”, the pIC50 in experiment [1] is 7.74; in experiment [2], 7.19; in experiment [3], 6.92.

For the compound `CCN(CC)CC.Cc1ccc2c(Br)cc3c(c2c1)NC(=O)CC(=O)N3c1cccc(-c2noc(=S)[nH]2)c1` [Compound 21e, 7-Bromo-10-methyl-5-(3-(5-thioxo-4,5-dihydro-1,2,4-oxadiazol-3-yl)phenyl)-1,5-dihydro-2H-naphtho[1,2-b][1,4]diazepine-2,4(3H)-dione triethylamine salt], in experiment [4], the pIC50 was 4.93 and the “hP2X4R inhibitory activity relative to 22a, in words” value is recorded as “only moderately reduced activity”. Besides, in experiment [1], the hP2X3R % inhib. is given as 17%. The hP2X2/3R % inhib. in experiment [2] is given as −5%. Besides, the hP2X1R % inhib. in experiment [3] is −2%.

Take `CCN(CC)CC.[N-]=[N+]=NCc1ccc2ccc3c(c2c1)NC(=O)CC(=O)N3c1cccc(-c2noc(=S)[nH]2)c1` [Compound 21g, 10-(azidomethyl)-5-(3-(5-thioxo-4,5-dihydro-1,2,4-oxadiazol-3-yl)phenyl)-1,5-dihydro-2H-naphtho[1,2-b][1,4]diazepine-2,4(3H)-dione triethylamine salt]: the hP2X4R % inhib. in experiment [4] is 6%. The compound also came in with a hP2X3R % inhib. in experiment [1] of 13%. For the same compound, the hP2X2/3R % inhib. in experiment [2] turned out to be 4%. Further, the hP2X1R % inhib. in experiment [3] is 8%.

Take `CCN(CC)CC.[N-]=[N+]=NCc1ccc2c(Br)cc3c(c2c1)NC(=O)CC(=O)N3c1cccc(-c2noc(=S)[nH]2)c1` [Compound 21h, 10-(azidomethyl)-7-bromo-5-(3-(5-thioxo-4,5-dihydro-1,2,4-oxadiazol-3-yl)phenyl)-1,5-dihydro-2H-naphtho[1,2-b][1,4]diazepine-2,4(3H)-dione triethylamine salt]: in experiment [4], the hP2X4R % inhib. was 8% and the “hP2X4R inhibitory activity relative to 22a, in words” value is “inactive”. This compound registered a hP2X3R % inhib. in experiment [1] of 15%. Also, in experiment [2], the hP2X2/3R % inhib. is recorded as −4%. Further, the hP2X1R % inhib. in experiment [3] is reported as −13%.

In the case of `CC(=O)NCc1ccc2ccc3c(c2c1)NC(=O)CC(=O)N3c1cccc(-c2noc(=S)[nH]2)c1.CCN(CC)CC` [Compound 21i, N-((2,4-Dioxo-5-(3-(5-thioxo-4,5-dihydro-1,2,4-oxadiazol-3-yl)phenyl)-2,3,4,5-tetrahydro-1H-naphtho[1,2-b][1,4]diazepin-10-yl)methyl) acetamide triethylamine salt], the “hP2X4R inhibitory activity relative to 22a, in words” value in experiment [4] was “inactive”. The compound further had a hP2X4R % inhib. in experiment [4] (percent inhibition at 30 μM, agonist CTP 10 μM) of 16%. Further, the hP2X3R % inhib. in experiment [1] (setting [5]) is 9%. Moreover, the hP2X2/3R % inhib. in experiment [2] (setting [6]) is listed as −5%.

As to `CCN(CC)CC.[N-]=[N+]=NCc1ccc2c3c(ccc2c1)N(c1cccc(-c2noc(=S)[nH]2)c1)C(=O)CC(=O)N3` [Compound 21j, 9-(Azidomethyl)-5-(3-(5-thioxo-4,5-dihydro-1,2,4-oxadiazol-3-yl)phenyl)-1,5-dihydro-2H-naphtho[1,2-b][1,4]diazepine-2,4(3H)-dione triethylamine salt], in experiment [4], the pIC50 is 4.67 and the “hP2X4R inhibitory activity relative to 22a, in words” value was “destabilizing”. In addition, in experiment [1], the hP2X3R % inhib. was 0%. Besides, the hP2X2/3R % inhib. in experiment [2] came to 2%. The hP2X1R % inhib. in experiment [3] is recorded as −5%.

Consider `O=C1CC(=O)N(c2cccc(-c3noc(=S)[nH]3)c2)c2cc(C#Cc3ccccc3)c3ccccc3c2N1` [Compound 21m, 7-(Phenylethynyl)-5-(3-(5-thioxo-4,5-dihydro-1,2,4-oxadiazol-3-yl)phenyl)-1,5-dihydro-2H-naphtho[1,2-b][1,4]diazepine-2,4(3H)-dione], for which the inhibition at 30 µM was -4% in experiment [4], 7% in experiment [1] (setting [5]), 5% in experiment [2] (setting [6]) and 14% in experiment [3].

As to `O=C1CC(=O)N(c2cccc(-c3noc(=S)[nH]3)c2)c2cc(C#Cc3cccnc3)c3ccccc3c2N1` [Compound 21n, 7-(Pyridin-3-ylethynyl)-5-(3-(5-thioxo-4,5-dihydro-1,2,4-oxadiazol-3-yl)phenyl)-1,5-dihydro-2H-naphtho[1,2-b][1,4]diazepine-2,4(3H)-dione], the inhibition at 30 µM worked out at 34% in experiment [4], 9% in experiment [1] (setting [5]), 13% in experiment [2] (setting [6]) and 9% in experiment [3].

`CCCCC#Cc1cc2c(c3ccccc13)NC(=O)CC(=O)N2c1cccc(-c2noc(=S)[nH]2)c1` [Compound 21o, 7-(Hex-1-yn-1-yl)-5-(3-(5-thioxo-4,5-dihydro-1,2,4-oxadiazol-3-yl)phenyl)-1,5-dihydro-2H-naphtho[1,2-b][1,4]diazepine-2,4(3H)-dione]: the inhibition at 30 µM in experiment [4] was 15%; in experiment [1] (setting [5]), 18%; in experiment [2] (setting [6]), 1%; in experiment [3] it was 16%.

Turning to `CCc1cc2c(c3ccccc13)NC(=O)CC(=O)N2c1cccc(-c2noc(=S)[nH]2)c1` [Compound 21p, 7-Ethyl-5-(3-(5-thioxo-4,5-dihydro-1,2,4-oxadiazol-3-yl)phenyl)-1,5-dihydro-2H-naphtho[1,2-b][1,4]diazepine-2,4(3H)-dione triethylamine salt], the pIC50 in experiment [4] (agonist CTP 10 μM (~EC80)) is 5.29. In addition, the inhibition at 30 µM in experiment [1] (setting [5]) amounted to 6%; in experiment [2] (setting [6]) it was 10%; in experiment [3], 6%.

`CCN(CC)CC.NCc1ccc2ccc3c(c2c1)NC(=O)CC(=O)N3c1cccc(-c2noc(=S)[nH]2)c1` [Compound 21q, 10-(Aminomethyl)-5-(3-(5-thioxo-4,5-dihydro-1,2,4-oxadiazol-3-yl)phenyl)-1,5-dihydro-2H-naphtho[1,2-b][1,4]diazepine-2,4(3H)-dione triethylamine salt]: the hP2X4R % inhib. in experiment [4] stood at 9%. In experiment [1], this compound displayed a hP2X3R % inhib. of 9%. In experiment [2], the hP2X2/3R % inhib. came out at 0%. In experiment [3], the hP2X1R % inhib. is listed as 8%.

Consider `Cc1cc(-c2noc(=S)[nH]2)cc(N2C(=O)CC(=O)Nc3c2ccc2ccccc32)c1` [Compound 21r, 5-(3-Methyl-5-(5-thioxo-4,5-dihydro-1,2,4-oxadiazol-3-yl)phenyl)-1,5-dihydro-2H-naphtho[1,2-b][1,4]diazepine-2,4(3H)-dione], for which the pIC50 in experiment [4] (agonist CTP 10 μM (~EC80)) was 4.85. The inhibition at 30 µM in experiment [1] (setting [5]) worked out at 12%; in experiment [2] (setting [6]), 5%; in experiment [3] it was 16%.

For the compound `O=C1CC(=O)N(c2cc(-c3noc(=S)[nH]3)ccn2)c2ccc3ccccc3c2N1` [Compound 21s, 5-(4-(5-Thioxo-4,5-dihydro-1,2,4-oxadiazol-3-yl)pyridin-2-yl)-1,5-dihydro-2H-naphtho[1,2-b][1,4]diazepine-2,4(3H)-dione triethylamine salt], the “hP2X4R inhibitory activity relative to 22a, in words” value in experiment [4] is “reduce”. The compound further gave a pIC50 in experiment [4] (agonist CTP 10 μM (~EC80)) of 4.87. Besides, the inhibition at 30 µM was 18% in experiment [1] (setting [5]), -6% in experiment [2] (setting [6]) and 18% in experiment [3].
